In publication PMC6934184, “Selective DNA-PKcs inhibition extends the therapeutic index of localized radiotherapy and chemotherapy” (The Journal of Clinical Investigation, 2019):

Target: T1, SIK1 (Homo sapiens, UniProt P57059)
T1 construct: purchased Thermo Fisher Scientific (Life Technologies) SelectScreen
Assay: SelectScreen LanthaScreen
Type: binding
Conditions: 1 µM
Procedure, shortened: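 SelectScreen broad panel; activity (Z'LYTE, Adapta) plus binding formats. ATP: Km app for CSF1R Z'LYTE; 10 for CAMK1 Adapta. Readout = % per kinase.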

T1 sequence (P57059 whole entry): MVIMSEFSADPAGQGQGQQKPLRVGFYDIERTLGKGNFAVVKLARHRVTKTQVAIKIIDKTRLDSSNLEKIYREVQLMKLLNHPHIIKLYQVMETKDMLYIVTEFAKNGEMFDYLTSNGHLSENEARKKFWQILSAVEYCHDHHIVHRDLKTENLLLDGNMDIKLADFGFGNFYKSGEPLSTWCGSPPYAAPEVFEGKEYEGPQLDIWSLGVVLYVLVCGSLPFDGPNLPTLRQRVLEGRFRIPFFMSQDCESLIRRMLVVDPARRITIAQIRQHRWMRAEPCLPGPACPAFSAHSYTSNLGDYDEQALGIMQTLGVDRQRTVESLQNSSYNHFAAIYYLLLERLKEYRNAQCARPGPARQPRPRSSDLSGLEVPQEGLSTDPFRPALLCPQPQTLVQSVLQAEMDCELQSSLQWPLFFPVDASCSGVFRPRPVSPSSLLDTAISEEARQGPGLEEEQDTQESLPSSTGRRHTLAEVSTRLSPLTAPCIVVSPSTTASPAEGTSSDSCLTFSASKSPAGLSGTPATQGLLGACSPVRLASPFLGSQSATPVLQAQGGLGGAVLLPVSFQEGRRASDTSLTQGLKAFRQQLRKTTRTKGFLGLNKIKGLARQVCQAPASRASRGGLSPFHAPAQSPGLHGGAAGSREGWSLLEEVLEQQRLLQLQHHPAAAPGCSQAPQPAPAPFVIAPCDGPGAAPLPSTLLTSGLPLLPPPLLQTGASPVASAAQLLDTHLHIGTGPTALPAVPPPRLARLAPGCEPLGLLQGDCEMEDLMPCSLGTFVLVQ

For `CN(C(=O)CN1CCOCC1)c1ccc2sc3c(-c4cccc5c(=O)cc(N6CC7CCC(C6)O7)oc45)cccc3c2c1` [NU5455], the “% displacement” value was 1.3%.
